# Data published in patent US20060199211A1, “Fluorous-based microarrays” (priority 2005, published 2006).
# Tests used:
# [1] = tested on: lectin from Triticum vulgaris (wheat germ, FITC-WGA); experiment: Fluorous carbohydrate microarray screened with FITC-labeled wheat germ lectin (fluorescence scan at 488 nm); assay type: binding; settings: carbohydrates 4-11 spotted (2 mM in 80% methanol/water) on fluorinated glass slide; FITC-WGA in PBS buffer (0.25 M), 30 min; WGA bound only to this one
# Experimental: (§1) With the fluorous-tagged carbohydrates in hand, the ability of the single C8F17 tail to anchor these mono- and disaccharides to a glass slide surface even after repeated washes was examined. The fluorous-tagged carbohydrates 4-11 were dissolved in 80% methanol/water and were spotted onto fluoroalkylsilane-derivatized glass slides employing a standard robot used for DNA arraying. The slides then were incubated for 30 minutes with the commercially available FITC (fluorescein isothiocyanate)-labeled lectins from Triticum vulgaris (wheat germ, FITC-WGA) in phosphate buffered saline (PBS buffer) (0.25 M) and Arachis hypogaea (peanut, FITC-PNA) in PBS buffer (0.5 M) and rinsed repeatedly with the assay buffer followed by distilled water. After drying, the slide was scanned with a standard fluorescent slide scanner at 488 nm to reveal the carbohydrate-binding specificities of these two lectins. As expected the wheat germ lectin WGA bound only to the fluorous-tagged N-acetylglucosamine (5). In contrast, the peanut lectin PNA bound to both galactose (7) and lactose (10) in the array experiment. This lectin is known to bind to galactose both alone and in the context of the lactose disaccharide. […]
# [2] = target: T1, lectin from Arachis hypogaea (peanut, FITC-PNA) (Arachis hypogaea, UniProt P02872); experiment: Fluorous carbohydrate microarray screened with FITC-labeled peanut lectin (fluorescence scan at 488 nm); assay type: binding; settings: carbohydrates 4-11 spotted (2 mM in 80% methanol/water) on fluorinated glass slide; FITC-PNA in PBS buffer (0.5 M), 30 min
# T1 construct: purchased EY Laboratories, San Mateo, Calif
# T1 sequence (P02872 24-273): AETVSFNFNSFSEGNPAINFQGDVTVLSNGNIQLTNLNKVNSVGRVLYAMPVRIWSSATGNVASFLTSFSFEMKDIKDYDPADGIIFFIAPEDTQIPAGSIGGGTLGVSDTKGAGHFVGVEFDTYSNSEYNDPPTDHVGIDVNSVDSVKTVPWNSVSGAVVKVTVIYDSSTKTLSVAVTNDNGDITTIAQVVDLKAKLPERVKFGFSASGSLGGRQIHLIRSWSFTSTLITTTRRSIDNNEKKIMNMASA
# Experimental: as §1
binding of wheat germ lectin WGA to arrayed fluorous-tagged carbohydrate [1],SMILES,binding of peanut lectin PNA to arrayed fluorous-tagged carbohydrate [2]
bound,"CC(=O)N[C@H]1[C@H](OCCCCOCCCC(F)(F)C(F)(F)C(F)(F)C(F)(F)C(F)(F)C(F)(F)C(F)(F)C(F)(F)F)O[C@H](CO)[C@@H](O)[C@@H]1O [Compound 5, 3-(perfluorooctyl)propanyloxybutanyl-2-deoxy-2-acylamino-β-D-glucopyranoside]",–
–,OC[C@H]1O[C@@H](OCCCCOCCCC(F)(F)C(F)(F)C(F)(F)C(F)(F)C(F)(F)C(F)(F)C(F)(F)C(F)(F)F)[C@H](O)[C@@H](O)[C@H]1O [Compound 7],bound
–,OC[C@H]1O[C@@H](O[C@H]2[C@H](O)[C@@H](O)[C@H](OCCCCOCCCC(F)(F)C(F)(F)C(F)(F)C(F)(F)C(F)(F)C(F)(F)C(F)(F)C(F)(F)F)O[C@@H]2CO)[C@H](O)[C@@H](O)[C@H]1O [Compound 10],bound
